From patent US20220304974A1, “COMPOSITION COMPRISING GOSSYPETIN FOR PREVENTION OR TREATMENT OF NEURODEGENERATIVE DISEASE” (NOVMETAHEALTH CO.,LTD., priority 2019, published 2022)

Tests used:
[1] = system: U2OS cells expressing VRK2; test: Intracellular polyglutamine protein aggregation (dot blot, electrophoresis, microscopy), different concentrations of gossypetin; type: cell-based
Description: Polyglutamine protein aggregation is a cause of a degenerative brain disease. In order to investigate the polyglutamine protein aggregation inhibitory effect of gossypetin, U2OS cells expressing VRK2 were treated with different concentrations of gossypetin after the expression of a green fluorescent protein-conjugated polyglutamine protein, and a dot blot assay was performed. The protein aggregates formed in the cells were observed via electrophoresis, and the intracellular protein aggregate formation was observed using a microscope and quantitatively expressed.

VRK2 [2] = molecular target: T1, VRK2 (Homo sapiens, UniProt Q86Y07); test: Binding between VRK2 and gossypetin-Sepharose 4B
Source text: First, gossypetin was chemically bound to Sepharose 4B (FIG. 2A), and then the binding between gossypetin and VRK2 was investigated.

VRK2 [3] = molecular target: T1, VRK2; test: VRK2 activity inhibition (in vitro kinase assay, autophosphorylation); type: biochemical
Source text: The kinase VRK2 is known to prevent the elimination of polyglutamine aggregates by regulating TRiC chaperone protein in cells.
The cytotoxicity of each compound was also examined.

chaperone protein CCT-4 = test: Chaperone protein preservation (amount of CCT-4); conditions: addition of gossypetin; FIG. 2E
[4] = system: 5×FAD Alzheimer's disease-induced mice; test: Y-maze test in Alzheimer's disease-induced mice; type: in vivo, mouse; conditions: for cognitive function (Y-maze test): 5×FAD mice, oral 10 mg/kg for 15 weeks from 8 weeks of age, FIG. 12
Description: (§1) […] Thereafter, Y-maze and Morris water maze tests were performed, which are widely used to check cognitive function. Specifically, short-term memory was assessed through the Y-maze test. The Morris water maze test was performed one week after the Y-maze test. Each mouse was trained to remember the location of the platform for 5 days, and then the time for the mouse to reach the platform was measured. On day 6 after the platform memory training, the platform was removed from the water tank, and the frequency of mouse staying at the site where the platform had been located was measured.

[5] = system: 5×FAD Alzheimer's disease-induced mice; test: Morris water maze test in Alzheimer's disease-induced mice; type: in vivo, mouse; conditions: 5×FAD mice; for memory of the platform site (water maze test): oral 10 mg/kg for 16 weeks from 8 weeks of age, platform removed on Day 6, FIG. 13
Description: as §1
In the water maze test, the mice were trained to find a platform placed under the surface in a water tank for 5 days, and then on Day 6, the platform was removed, and it was monitored how well the mice remembered the site where the platform had been located.

Aβ amyloid aggregates = test: Immunohistochemistry staining of Aβ amyloid aggregates in brain slices; type: in vivo, mouse; conditions: hippocampus and frontal lobe tissues; mice fed with gossypetin; FIGS. 6A to 6F
Description: The brains were extracted from the groups of Alzheimer's disease-induced mice fed and not fed with gossypetin and were made into slices, and then the formation of Aβ amyloid aggregates was analyzed using immunohistochemistry staining.

microglia and astrocytes = test: Gliosis analysis with IBA-1 and GFAP antibodies in brain slices; type: in vivo, mouse; conditions: hippocampus and frontal lobe tissues; FIGS. 8 and 9
Description: The brains were extracted from the groups of Alzheimer's disease-induced mice fed and not fed with gossypetin and were made into slices, and then the distribution and proliferation of microglia and astrocytes were analyzed using an antibody against IBA-1, a specific protein of microglia, and an antibody against GFAP, a specific protein of astrocytes.

[6] = system: polyglutamine protein aggregation in the cells; test: Intracellular polyglutamine protein aggregation, comparison of compounds (fluorescence microscope); type: cell-based; conditions: compared with the drug-untreated control group; FIGS. 11A and 11B
Description: (§2) In addition, cells were treated with each compound together with the induction of polyglutamine protein aggregation, and the reduction in amount of protein aggregation in the cells was observed using a fluorescence microscope. The total area of protein aggregation occurring in the cells, average size of protein aggregation, and inhibition rate of protein aggregation compared with the drug-untreated control group are shown in the table. The cytotoxicity of each compound was also examined.

cells = test: Cytotoxicity of each compound; type: cell-based; conditions: FIG. 11C
Description: as §2

T1 sequence (Q86Y07 whole entry, species assumed): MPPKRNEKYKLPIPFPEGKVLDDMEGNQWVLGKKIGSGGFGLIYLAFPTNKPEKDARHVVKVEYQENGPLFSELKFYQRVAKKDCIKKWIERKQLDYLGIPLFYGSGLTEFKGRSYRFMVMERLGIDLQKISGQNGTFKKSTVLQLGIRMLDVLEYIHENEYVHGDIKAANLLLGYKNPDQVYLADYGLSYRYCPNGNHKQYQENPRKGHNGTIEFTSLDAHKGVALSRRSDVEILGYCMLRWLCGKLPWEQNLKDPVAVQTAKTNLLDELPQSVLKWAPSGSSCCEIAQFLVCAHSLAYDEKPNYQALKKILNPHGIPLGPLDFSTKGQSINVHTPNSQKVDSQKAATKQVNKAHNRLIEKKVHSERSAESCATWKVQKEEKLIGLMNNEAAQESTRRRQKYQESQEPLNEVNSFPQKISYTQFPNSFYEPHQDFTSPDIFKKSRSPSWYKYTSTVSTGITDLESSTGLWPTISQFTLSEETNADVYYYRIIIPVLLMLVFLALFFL

O=c1c(O)c(-c2ccc(O)c(O)c2)oc2c(O)c(O)cc(O)c12 [gossypetin, 2-(3,4-dihydroxyphenyl)-3,5,7,8-tetrahydroxy-4H-chromen-4-one]
number of protein aggregate-bearing cells ([1]; FIGS. 1F to 1H): decreased
polyglutamine protein aggregates ([1]; different concentrations of gossypetin, FIGS. 1A and 1B): reduced depending on the gossypetin concentration
interaction between gossypetin and VRK2 (competition by added gossypetin) (VRK2 [2]; addition of gossypetin, FIG. 2C): specific
binding between gossypetin and VRK2 (VRK2 [2]; gossypetin-Sepharose 4B vs Sepharose 4B, FIG. 2B): VRK2 and gossypetin bound to each other
VRK2 activity (VRK2 [3]; different concentrations of gossypetin, FIG. 2D): inhibited depending on the concentration of gossypetin
autophosphorylation activity of VRK2 (VRK2 [3]; same concentration of 25 μM, FIG. 10): most strongly inhibited
amount of the chaperone protein CCT-4 (chaperone protein CCT-4): not decreased but increased
cognitive function (Y-maze test) [4]: restored the behavioral alteration to an almost normal level
short-term memory (Y-maze test) ([4]; 7-week-old 5×FAD mice, oral 10 mg/kg for 14 weeks, FIG. 3C): improvement in short-term memory to a level similar to that of normal mice
time to find the platform (escape latency) ([5]; oral 10 mg/kg for 14 weeks, 5 days training, FIG. 4): found the platform in a shorter amount of time which was almost as fast as normal mice
frequency of staying at the site where the platform had been located ([5]; oral 10 mg/kg for 14 weeks, platform removed, day 6, FIG. 5): increased frequency of staying at the site where the platform had been located
memory of the platform site (water maze test) [5]: excellent memory comparable to normal mice
Aβ amyloid aggregates (Aβ amyloid aggregates): significantly reduced
hyperactivity of microglia and astrocytes (gliosis) (microglia and astrocytes): significantly reduced
inhibition of the intracellular protein aggregation [6]: 43%
cytotoxicity (cells): not showing toxicity in cells

O=C(/C=C/c1ccc(O)c(O)c1)O[C@H](Cc1ccc(O)c(O)c1)C(=O)O [rosmarinic acid, reference compound]
cognitive function (Y-maze test) [4]: did not contribute to the alleviation of such cognitive function decline
memory of the platform site (water maze test) [5]: not significantly restored
